# Reference: PubChem BioAssay (NCI)
#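 How tested: cells in 96-well plates exposed to compound for 48 hours at five concentrations. At the GI50, growth is halved. TGI: total growth inhibition.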
# Assays:
# Assay in all cases: NCI tumour cell line growth inhibition, 48 h
# U251 CNS = system: U251 CNS
# SF-539 CNS = system: SF-539 CNS
# CCRF-CEM leukemia = system: CCRF-CEM leukemia
# NCI-H460 lung = system: NCI-H460 lung
# NCI/ADR-RES ovarian = system: NCI/ADR-RES ovarian
# DU-145 prostate = system: DU-145 prostate
# MDA-MB-231 breast = system: MDA-MB-231 breast
# UO-31 renal = system: UO-31 renal
# NCI-H23 lung = system: NCI-H23 lung
# MOLT-4 leukemia = system: MOLT-4 leukemia
# NCI-H226 lung = system: NCI-H226 lung
# PC-3 prostate = system: PC-3 prostate
# SW-620 colon = system: SW-620 colon
# EKVX NSCLC = system: EKVX NSCLC
# UACC-62 melanoma = system: UACC-62 melanoma
# BT-549 breast = system: BT-549 breast
# SNB-19 CNS = system: SNB-19 CNS
# MDA-MB-468 breast = system: MDA-MB-468 breast
# SK-MEL-2 melanoma = system: SK-MEL-2 melanoma
# HCT-15 colon = system: HCT-15 colon
# CAKI-1 renal = system: CAKI-1 renal
# MALME-3M melanoma = system: MALME-3M melanoma
# SF-295 CNS = system: SF-295 CNS
# NCI-H522 lung = system: NCI-H522 lung
# UACC-257 melanoma = system: UACC-257 melanoma
# SNB-75 CNS = system: SNB-75 CNS
# LOX IMVI melanoma = system: LOX IMVI melanoma
# HOP-62 NSCLC = system: HOP-62 NSCLC
# HCC-2998 colon = system: HCC-2998 colon
# KM12 colon = system: KM12 colon
# OVCAR-5 ovarian = system: OVCAR-5 ovarian
# HT29 colon = system: HT29 colon
# OVCAR-3 ovarian = system: OVCAR-3 ovarian
# MDA-MB-435 = system: MDA-MB-435
# HS 578T breast = system: HS 578T breast
# IGROV1 ovarian = system: IGROV1 ovarian
# COLO 205 colon = system: COLO 205 colon
# OVCAR-8 ovarian = system: OVCAR-8 ovarian
# 786-0 renal = system: 786-0 renal
# OVCAR-4 ovarian = system: OVCAR-4 ovarian
# HCT-116 colon = system: HCT-116 colon
# SN12C renal = system: SN12C renal
# K-562 leukemia = system: K-562 leukemia
# TK-10 renal = system: TK-10 renal
# A549 NSCLC = system: A549 NSCLC
# SK-MEL-28 melanoma = system: SK-MEL-28 melanoma
# ACHN renal = system: ACHN renal
# M14 melanoma = system: M14 melanoma
# SR leukemia = system: SR leukemia
# SK-OV-3 ovarian = system: SK-OV-3 ovarian
# RPMI-8226 leukemia = system: RPMI-8226 leukemia
# HL-60(TB) leukemia = system: HL-60(TB) leukemia
# A498 renal = system: A498 renal
# MCF7 breast = system: MCF7 breast
# HOP-92 NSCLC = system: HOP-92 NSCLC
# RXF 393 renal = system: RXF 393 renal
# SK-MEL-5 melanoma = system: SK-MEL-5 melanoma
# SF-268 CNS = system: SF-268 CNS
smiles,measurement,setting,value
Oc1ccc(F)c(Nc2nc(SCCN3CCOCC3)nc3c2cnn3CC(Cl)c2ccc(Br)cc2)c1 (stereo unspecified),GI50,U251 CNS,5.19 µM
same,TGI,U251 CNS,18.5 µM
same,GI50,SF-539 CNS,4.33 µM
same,TGI,SF-539 CNS,16.3 µM
same,GI50,CCRF-CEM leukemia,3.67 µM
same,TGI,CCRF-CEM leukemia,54 µM
same,GI50,NCI-H460 lung,4.38 µM
same,TGI,NCI-H460 lung,65.4 µM
same,GI50,NCI/ADR-RES ovarian,3.35 µM
same,TGI,NCI/ADR-RES ovarian,29.1 µM
same,GI50,DU-145 prostate,8.03 µM
same,TGI,DU-145 prostate,> 100 µM
same,GI50,MDA-MB-231 breast,2.8 µM
same,TGI,MDA-MB-231 breast,9.68 µM
same,GI50,UO-31 renal,3.15 µM
same,TGI,UO-31 renal,55 µM
same,GI50,NCI-H23 lung,4.74 µM
same,TGI,NCI-H23 lung,18.1 µM
same,GI50,MOLT-4 leukemia,2.83 µM
same,TGI,MOLT-4 leukemia,14.6 µM
same,GI50,NCI-H226 lung,3.82 µM
same,TGI,NCI-H226 lung,43.7 µM
same,GI50,PC-3 prostate,4.51 µM
same,TGI,PC-3 prostate,> 100 µM
same,GI50,SW-620 colon,7.38 µM
same,TGI,SW-620 colon,> 100 µM
same,GI50,EKVX NSCLC,4.44 µM
same,TGI,EKVX NSCLC,> 100 µM
same,GI50,UACC-62 melanoma,3.98 µM
same,TGI,UACC-62 melanoma,15.6 µM
same,GI50,BT-549 breast,7.46 µM
same,TGI,BT-549 breast,22.7 µM
same,GI50,SNB-19 CNS,9.02 µM
same,TGI,SNB-19 CNS,> 100 µM
same,GI50,MDA-MB-468 breast,2.44 µM
same,TGI,MDA-MB-468 breast,9.54 µM
same,GI50,SK-MEL-2 melanoma,10.2 µM
same,TGI,SK-MEL-2 melanoma,22.4 µM
same,GI50,HCT-15 colon,2.72 µM
same,TGI,HCT-15 colon,20.5 µM
same,GI50,CAKI-1 renal,9.49 µM
same,TGI,CAKI-1 renal,> 100 µM
same,GI50,MALME-3M melanoma,2.86 µM
same,TGI,MALME-3M melanoma,11.5 µM
same,GI50,SF-295 CNS,2.66 µM
same,TGI,SF-295 CNS,11.1 µM
same,GI50,NCI-H522 lung,4.6 µM
same,TGI,NCI-H522 lung,27.9 µM
same,GI50,UACC-257 melanoma,5.48 µM
same,TGI,UACC-257 melanoma,23 µM
same,GI50,SNB-75 CNS,3.23 µM
same,TGI,SNB-75 CNS,22.3 µM
same,GI50,LOX IMVI melanoma,2.56 µM
same,TGI,LOX IMVI melanoma,10.5 µM
same,GI50,HOP-62 NSCLC,5.08 µM
same,TGI,HOP-62 NSCLC,39 µM
same,GI50,HCC-2998 colon,3.64 µM
same,TGI,HCC-2998 colon,15.4 µM
same,GI50,KM12 colon,5.22 µM
same,TGI,KM12 colon,> 100 µM
same,GI50,OVCAR-5 ovarian,6.62 µM
same,TGI,OVCAR-5 ovarian,39.5 µM
same,GI50,HT29 colon,3.33 µM
same,TGI,HT29 colon,12.8 µM
same,GI50,OVCAR-3 ovarian,8.88 µM
same,TGI,OVCAR-3 ovarian,> 100 µM
same,GI50,MDA-MB-435,6.74 µM
same,TGI,MDA-MB-435,24.3 µM
same,GI50,HS 578T breast,2 µM
same,TGI,HS 578T breast,8.19 µM
same,GI50,IGROV1 ovarian,3.7 µM
same,TGI,IGROV1 ovarian,22.7 µM
same,GI50,COLO 205 colon,17 µM
same,TGI,COLO 205 colon,34.7 µM
same,GI50,OVCAR-8 ovarian,4.27 µM
same,TGI,OVCAR-8 ovarian,56.5 µM
same,GI50,786-0 renal,5.02 µM
same,TGI,786-0 renal,75.2 µM
same,GI50,OVCAR-4 ovarian,6.92 µM
same,TGI,OVCAR-4 ovarian,> 100 µM
same,GI50,HCT-116 colon,3.29 µM
same,TGI,HCT-116 colon,16.2 µM
same,GI50,SN12C renal,3.37 µM
same,TGI,SN12C renal,24.9 µM
same,GI50,K-562 leukemia,1.69 µM
same,TGI,K-562 leukemia,14.5 µM
same,GI50,TK-10 renal,21.1 µM
same,TGI,TK-10 renal,62.5 µM
same,GI50,A549 NSCLC,4.06 µM
same,TGI,A549 NSCLC,> 100 µM
same,GI50,SK-MEL-28 melanoma,4.44 µM
same,TGI,SK-MEL-28 melanoma,24.3 µM
same,GI50,ACHN renal,3.48 µM
same,TGI,ACHN renal,45.1 µM
same,GI50,M14 melanoma,4.18 µM
same,TGI,M14 melanoma,16.4 µM
same,GI50,SR leukemia,1.61 µM
same,TGI,SR leukemia,> 100 µM
same,GI50,SK-OV-3 ovarian,11 µM
same,TGI,SK-OV-3 ovarian,84.6 µM
same,GI50,RPMI-8226 leukemia,4.31 µM
same,TGI,RPMI-8226 leukemia,25.7 µM
same,GI50,HL-60(TB) leukemia,3.42 µM
same,TGI,HL-60(TB) leukemia,33.6 µM
same,GI50,A498 renal,14.5 µM
same,TGI,A498 renal,45 µM
same,GI50,MCF7 breast,2.87 µM
same,TGI,MCF7 breast,40.2 µM
same,GI50,HOP-92 NSCLC,4.53 µM
same,TGI,HOP-92 NSCLC,> 100 µM
same,GI50,RXF 393 renal,1.36 µM
same,TGI,RXF 393 renal,4.34 µM
same,GI50,SK-MEL-5 melanoma,4.05 µM
same,TGI,SK-MEL-5 melanoma,15.7 µM
same,GI50,SF-268 CNS,6.23 µM
same,TGI,SF-268 CNS,> 100 µM
